Six compounds from ChEMBL document CHEMBL4420071, “Method for treating skin with retinoids and retinoid boosters” (2013) can be followed below.

The species named for test [1] is Homo sapiens. The test is described as follows: Inhibition of transglutaminase in human keratinocytes assessed as mean transglutaminase activity level at 3.3 10^-6M in presence of 10 uM retinal relative to retinal alone. Type of test: cell-based. Details: scale not given: the % may be the effect or the level left.
Test [2] is filed under the species Homo sapiens. Put plainly: Inhibition of transglutaminase in human keratinocytes assessed as mean transglutaminase activity level at 8.2 10^-8M in presence of 10 uM retinal relative to retinal alone. Type of test: cell-based. Details: scale not given: the % may be the effect or the level left.
Test [3] is filed under the species Homo sapiens. Put plainly: Inhibition of transglutaminase in human keratinocytes assessed as mean transglutaminase activity level at 4.1 10^-8M in presence of 10 uM retinal relative to retinal alone. Type of test: cell-based. Details: scale not given: the % may be the effect or the level left.
The species entered for test [4] is Homo sapiens. The test is described as follows: Inhibition of transglutaminase in human keratinocytes assessed as mean transglutaminase activity level at 1 10^-5M in presence of 10 uM retinal relative to retinal alone. Type of test: cell-based. Also on record: scale not given: the % may be the effect or the level left.
The species named for test [5] is Homo sapiens. The test is described as follows: Inhibition of transglutaminase in human keratinocytes assessed as mean transglutaminase activity level at 3.29 10^-9M in presence of 10 uM retinal relative to retinal alone. Type of test: cell-based. Also on record: scale not given: the % may be the effect or the level left.
For test [6], the species on record is Homo sapiens. Put plainly: Inhibition of transglutaminase in human keratinocytes assessed as mean transglutaminase activity level at 3.73 10^-7M in presence of 10 uM retinal relative to retinal alone. Type of test: cell-based. Details: scale not given: the % may be the effect or the level left.
The species entered for a further test is Rattus norvegicus. Put plainly: Inhibition of retinal reductase in Sprague-Dawley rat liver microsomes at 100 uM using all-trans retinaldehyde and NADPH by HPLC analysis relative to control.
The species named for test [7] is Homo sapiens. The test is described as follows: Inhibition of transglutaminase in human keratinocytes assessed as mean transglutaminase activity level at 1.65 10^-9M in presence of 10 uM retinal relative to retinal alone. Type of test: cell-based. Details: scale not given: the % may be the effect or the level left.
The species entered for test [8] is Homo sapiens. The test is described as follows: Inhibition of transglutaminase in human keratinocytes assessed as mean transglutaminase activity level at 1.23 10^-7M in presence of 10 uM retinal relative to retinal alone. Type of test: cell-based. Also on record: scale not given: the % may be the effect or the level left.
For test [9], the species on record is Homo sapiens.
Description: Inhibition of transglutaminase in human keratinocytes in presence of 10 uM retinal relative to retinal alone
For test [10], the species on record is Homo sapiens. The test is described as follows: Inhibition of transglutaminase in human keratinocytes assessed as mean transglutaminase activity level at 1.1 10^-6M in presence of 10 uM retinal relative to retinal alone. Also on record: scale not given: the % may be the effect or the level left. Type of test: cell-based.
The species entered for test [11] is Homo sapiens. The test is described as follows: Inhibition of transglutaminase in human keratinocytes assessed as mean transglutaminase activity level at 3 10^-5M in presence of 10 uM retinal relative to retinal alone. Type of test: cell-based. Details: scale not given: the % may be the effect or the level left.
The species entered for test [12] is Homo sapiens. Put plainly: Inhibition of transglutaminase in human keratinocytes in presence of retinal relative to retinal alone. Type of test: cell-based. The conditions noted are these: concentration not given here.
Test [13] is filed under the species Homo sapiens. The test is described as follows: Inhibition of transglutaminase in human keratinocytes at 1 uM relative to control. Type of test: cell-based.
The species entered for test [14] is Homo sapiens. The test is described as follows: Inhibition of transglutaminase in human keratinocytes assessed as mean transglutaminase activity level at 4.1 10^-5M in presence of 10 uM retinal relative to retinal alone. Details: scale not given: the % may be the effect or the level left. Type of test: cell-based.
Test [15] is filed under the species Homo sapiens. The test is described as follows: Inhibition of transglutaminase in human keratinocytes assessed as mean transglutaminase activity level at 5.0 10^-8M in presence of 10 uM retinal relative to retinal alone. Also on record: scale not given: the % may be the effect or the level left. Type of test: cell-based.
The species entered for test [16] is Homo sapiens. Put plainly: Inhibition of transglutaminase in human keratinocytes assessed as mean transglutaminase activity level at 3.73 10^-4M in presence of 10 uM retinal relative to retinal alone. Type of test: cell-based. Details: scale not given: the % may be the effect or the level left.
For test [17], the species on record is Homo sapiens. The test is described as follows: Inhibition of transglutaminase in human keratinocytes assessed as mean transglutaminase activity level at 1.65 10^-7M in presence of 10 uM retinal relative to retinal alone. Also on record: scale not given: the % may be the effect or the level left. Type of test: cell-based.
For test [18], the species on record is Homo sapiens. Put plainly: Inhibition of transglutaminase in human keratinocytes assessed as mean transglutaminase activity level at 1.1 10^-4M in presence of 10 uM retinal relative to retinal alone. Type of test: cell-based. Also on record: scale not given: the % may be the effect or the level left.
For test [19], the species on record is Homo sapiens. The test is described as follows: Inhibition of transglutaminase in human keratinocytes assessed as mean transglutaminase activity level at 1.23 10^-5M in presence of 10 uM retinal relative to retinal alone. Type of test: cell-based. Also on record: scale not given: the % may be the effect or the level left.
The species named for test [20] is Homo sapiens. Put plainly: Inhibition of transglutaminase in human keratinocytes assessed as mean transglutaminase activity level at 8.2 10^-6M in presence of 10 uM retinal relative to retinal alone. Type of test: cell-based. Details: scale not given: the % may be the effect or the level left.
The species named for test [21] is Homo sapiens. Put plainly: Inhibition of transglutaminase in human keratinocytes assessed as mean transglutaminase activity level at 1.1 10^-8M in presence of 10 uM retinal relative to retinal alone. Type of test: cell-based. Details: scale not given: the % may be the effect or the level left.
The target of test [22] is T1, Cellular retinoic acid-binding protein 2 (Homo sapiens) (UniProt P29373).
T1 sequence (whole entry): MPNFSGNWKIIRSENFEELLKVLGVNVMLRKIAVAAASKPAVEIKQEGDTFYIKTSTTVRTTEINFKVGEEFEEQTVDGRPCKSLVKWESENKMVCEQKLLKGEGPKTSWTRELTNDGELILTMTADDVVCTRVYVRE
Put plainly: Inhibition of radioactive all-trans retinoic acid binding to CRABP2 (unknown origin) expressed in Escherichia coli BLR(DE3)pLys incubated for 1 hr by scintillation counting assay. The conditions noted are these: concentration not given here.

Test [23] addresses T2, Diacylglycerol O-acyltransferase 1 (Bos taurus) (UniProt Q8MK44).
T2 sequence (whole entry): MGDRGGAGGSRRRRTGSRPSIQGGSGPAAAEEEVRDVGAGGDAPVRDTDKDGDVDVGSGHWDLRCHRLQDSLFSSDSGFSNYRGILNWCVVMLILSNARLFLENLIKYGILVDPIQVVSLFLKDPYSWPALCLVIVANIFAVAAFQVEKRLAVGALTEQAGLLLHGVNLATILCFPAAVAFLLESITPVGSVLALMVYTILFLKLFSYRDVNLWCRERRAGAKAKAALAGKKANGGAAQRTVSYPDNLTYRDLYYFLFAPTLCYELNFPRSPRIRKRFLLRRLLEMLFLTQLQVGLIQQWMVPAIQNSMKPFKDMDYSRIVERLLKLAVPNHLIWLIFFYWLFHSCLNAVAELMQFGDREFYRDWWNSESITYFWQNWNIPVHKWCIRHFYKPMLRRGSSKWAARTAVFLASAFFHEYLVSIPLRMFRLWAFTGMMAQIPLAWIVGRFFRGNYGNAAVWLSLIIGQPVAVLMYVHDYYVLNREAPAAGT
The conditions noted are these: at 100 µM.
Description: Inhibition of ARAT in bovine RPE microsomes at 100 uM using retinol substrate in presence of dilauroyl-phosphatidyl choline incubated for 5 mins by HPLC analysis relative to control

Test [24] has as its target T3, Lecithin retinol acyltransferase (Bos taurus) (UniProt Q9BGL2).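 Note: bovine retinal pigment epithelium microsomes given retinol plus palmitoyl-CoA, 5 min reaction, ester formation read by HPLC, inhibition expressed versus untreated control.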
T3 sequence (whole entry): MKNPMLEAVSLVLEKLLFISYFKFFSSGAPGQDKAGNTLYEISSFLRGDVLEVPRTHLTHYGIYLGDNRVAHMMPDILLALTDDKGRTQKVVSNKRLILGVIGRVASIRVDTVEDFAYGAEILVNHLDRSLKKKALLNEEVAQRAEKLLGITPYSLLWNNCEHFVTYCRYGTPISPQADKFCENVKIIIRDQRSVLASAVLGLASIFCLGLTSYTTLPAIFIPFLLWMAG
The conditions noted are these: at 100 µM.
Description: Inhibition of LRAT in bovine RPE microsomes at 100 uM using retinol substrate in presence of Palmitoyl-CoA incubated for 5 mins by HPLC analysis relative to control

As for `CC1(C)[C@@H](O)CC[C@]2(C)[C@H]3C(=O)C=C4[C@@H]5C[C@@](C)(C(=O)O)CC[C@]5(C)CC[C@@]4(C)[C@]3(C)CC[C@@H]12`, the Activity in the test filed under Homo sapiens [1] worked out at 2.5%; in the test filed under Homo sapiens [2], 225%; in the test filed under Homo sapiens [3], 93%; in the test filed under Homo sapiens [4] it was 0.7%; in the test filed under Homo sapiens [5], 100%; in the test listed under Homo sapiens [6], 120%. Moreover, the Activity in the test listed under Homo sapiens [7] is 103%; in the test listed under Homo sapiens [8], 112%; in the test filed under Homo sapiens [10], 96.4%; in the test filed under Homo sapiens [11] it was -0.3%. For the same compound, the inhibition in the test listed under Rattus norvegicus was 38%. Besides, the IC20 in the test listed under Homo sapiens [9] worked out at 5.96 ×10⁻⁶ M.
In the case of `O=C(NCNC(=O)NC1C(=O)NC(=O)N1CO)NC1C(=O)NC(=O)N1CO` (centres undefined), in the test listed under Homo sapiens [12], the inhibition came out at 35%.
In the test listed under Homo sapiens [13], `CC1=C(/C=C/C(C)=C/C=C/C(C)=C/C=O)C(C)(C)CCC1` registered an inhibition of 55%.
For `COc1cc(NS(C)(=O)=O)ccc1Nc1c2ccccc2nc2ccccc12`, the Activity is 64% in the test listed under Homo sapiens [1]; 131% in the test listed under Homo sapiens [2]; 110% in the test filed under Homo sapiens [3]; 1.8% in the test listed under Homo sapiens [4]; 92% in the test listed under Homo sapiens [5]; 109% in the test filed under Homo sapiens [6]. Besides, the Activity is 113% in the test listed under Homo sapiens [7], 65% in the test filed under Homo sapiens [8], 84% in the test filed under Homo sapiens [10] and -10% in the test listed under Homo sapiens [11]. In addition, the inhibition in the test filed under Rattus norvegicus was found to be 22%. This compound had an IC20 in the test filed under Homo sapiens [9] of 3.3 ×10⁻⁶ M.
In the case of `O=C(O)CCCCCCCCCCCCCCC(=O)O`, the Activity amounted to 105% in the test listed under Homo sapiens [14]; 74% in the test filed under Homo sapiens [15]; 43.4% in the test listed under Homo sapiens [16]; 95% in the test listed under Homo sapiens [17]; 14.2% in the test filed under Homo sapiens [18]; 130% in the test listed under Homo sapiens [19]. For the same compound, the Activity turned out to be 114% in the test filed under Homo sapiens [20] and 70% in the test listed under Homo sapiens [21]. For the same compound, the inhibition in test [22] was over 50%. The same compound yielded an IC20 in the test filed under Homo sapiens [9] of 8.4 ×10⁻⁵ M.
For `CCCCCCCCCCCC(=O)NCCO`, the inhibition in test [23] was determined as 13%; in the test listed under Homo sapiens [12], 11%; in [24] it was 34%.
